Molecular target: T1, BTK (Homo sapiens, UniProt Q06187)
T1 construct: endogenous in cells; host or cells: Ramos (ATCC CRL-1596)
Experiment: Cellular BTK HTRF Assay (BTK degradation in Ramos cells)
Assay type: cell-based
Conditions: four hours incubation, 37° C., BTK levels relative to DMSO-treated cells
Method: Ramos (CRL-1596) cells were obtained from American Type Culture Collection and were grown in RPMI-1640 media (ATCC, 30-2001) supplemented with 10% heat-inactivated FBS (Corning Premium Fetal Bovine Serum from Fisher, MT35015CV).
Compounds of the present invention were added to 50,000 Ramos cells in round-bottom 96 well plates with a final DMSO concentration of […] and were incubated at 37° C., 5% CO2 for four hours. BTK levels were determined using Cisbio Total-BTK HTRF ([…] Time-Resolved Fluorescence) kit (63ADK064PEG) according to manufacturer's protocol. Briefly, cells were incubated in 1× supplied lysis buffer for 30 minutes. In an opaque white low volume 96 well plate (Cisbio, 66PL96005), cell lysate was combined with two different specific BTK antibodies, one conjugated with Eu^3+-Cryptate FRET donor and one conjugated with d2 FRET acceptor. Assay controls include wells containing cell lysate with only the Eu^3+-Cryptate FRET donor antibody and wells containing both HTRF antibodies and lysis buffer without cells or control lysate provided by Cisbio. HTRF ratio was calculated as (acceptor signal at 665 nm/donor signal at 620 nm)×10^4. Background HTRF levels were determined from the control well containing the donor, but no acceptor, antibody. Background HTRF levels were subtracted from all samples. Readouts were reported as HTRF levels relative to HTRF levels of DMSO-treated cells. Four-parameter non-linear regressions were performed in GraphPad Prism 7.02 to obtain DC50 values. DC50 values are provided in Table 3, wherein A<7.5 nM, 7.5 nM≤B≤50 nM, and 50 nM<C<500 nM.

T1 sequence (Q06187 whole entry): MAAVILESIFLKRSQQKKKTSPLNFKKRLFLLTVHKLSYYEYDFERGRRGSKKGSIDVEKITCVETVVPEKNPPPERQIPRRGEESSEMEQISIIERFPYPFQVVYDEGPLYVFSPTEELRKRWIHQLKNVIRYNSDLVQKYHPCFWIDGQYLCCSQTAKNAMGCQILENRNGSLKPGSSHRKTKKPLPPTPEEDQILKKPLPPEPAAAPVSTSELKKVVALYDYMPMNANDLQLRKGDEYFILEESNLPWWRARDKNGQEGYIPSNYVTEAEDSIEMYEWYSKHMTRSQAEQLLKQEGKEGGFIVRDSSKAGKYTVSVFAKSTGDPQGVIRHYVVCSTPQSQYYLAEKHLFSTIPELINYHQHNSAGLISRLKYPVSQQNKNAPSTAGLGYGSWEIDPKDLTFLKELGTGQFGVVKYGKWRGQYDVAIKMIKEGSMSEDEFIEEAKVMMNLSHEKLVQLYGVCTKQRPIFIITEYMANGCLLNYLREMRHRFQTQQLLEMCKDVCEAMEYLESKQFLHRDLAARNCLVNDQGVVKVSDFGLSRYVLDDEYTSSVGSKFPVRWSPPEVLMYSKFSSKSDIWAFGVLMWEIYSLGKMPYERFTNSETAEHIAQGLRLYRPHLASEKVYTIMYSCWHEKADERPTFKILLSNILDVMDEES

Compound | DC50 [nM]
CS(=O)(=O)c1ccc(Nc2nc(N3CCC[C@@H](NC(=O)C4CCN(CC5CCN(c6ccc7c(c6)C(=O)N(C6CCC(=O)NC6=O)C7=O)CC5)CC4)C3)cnc2C(N)=O)cc1 (stereo partly drawn) [Compound 20, 5-[(3R)-3-[1-({1-[2-(2,6-dioxopiperidin-3-yl)-1,3-dioxoisoindol-5-yl]piperidin-4-yl}methyl)piperidine-4-amido]piperidin-1-yl]-3-[(4-methanesulfonylphenyl)amino]pyrazine-2-carboxamide] | < 7.5
Cn1cc(Nc2nc(N3CCC[C@@H](NC(=O)C4CCN(CC5CCN(c6ccc7c(c6)C(=O)N(C6CCC(=O)NC6=O)C7=O)CC5)CC4)C3)cnc2C(N)=O)cn1 (stereo partly drawn) [Compound 21, 5-((3R)-3-(1-((1-(2-(2,6-dioxopiperidin-3-yl)-1,3-dioxoisoindolin-5-yl)piperidin-4-yl)methyl)piperidine-4-carboxamido)piperidin-1-yl)-3-((1-methyl-1H-pyrazol-4-yl)amino)pyrazine-2-carboxamide] | < 7.5
Cc1cc(Nc2nc(N3CCC[C@@H](NC(=O)C4CCN(CC5CCN(c6ccc7c(c6)C(=O)N(C6CCC(=O)NC6=O)C7=O)CC5)CC4)C3)cnc2C(N)=O)sn1 (stereo partly drawn) [Compound 22, 5-[(3R)-3-[1-({1-[2-(2,6-dioxopiperidin-3-yl)-1,3-dioxoisoindol-5-yl]piperidin-4-yl}methyl)piperidine-4-amido]piperidin-1-yl]-3-[(3-methyl-1,2-thiazol-5-yl)amino]pyrazine-2-carboxamide] | < 7.5
Cc1cc(Nc2nc(N3CCC[C@@H](NC(=O)N4CCN(CC5CCN(c6ccc7c(c6)C(=O)N(C6CCC(=O)NC6=O)C7=O)CC5)CC4)C3)cnc2C(N)=O)sn1 (stereo partly drawn) [Compound 23, 5-[(3R)-3-[4-({1-[2-(2,6-dioxopiperidin-3-yl)-1,3-dioxoisoindol-5-yl]piperidin-4-yl}methyl)piperazine-1-carbonylamino]piperidin-1-yl]-3-[(3-methyl-1,2-thiazol-5-yl)amino]pyrazine-2-carboxamide] | < 7.5
CS(=O)(=O)c1ccc(Nc2nc(N3CCC[C@@H](NC(=O)N4CC5(C4)CN(c4ccc6c(c4)C(=O)N(C4CCC(=O)NC4=O)C6=O)C5)C3)cnc2C(N)=O)cc1 (stereo partly drawn) [Compound 24, N-[(3R)-1-{5-carbamoyl-6-[(4-methanesulfonylphenyl)amino]pyrazine-2-yl}piperidin-3-yl]-6-[2-(2,6-dioxopiperidin-3-yl)-1,3-dioxoisoindol-5-yl]-2,6-diazaspiro[3.3]heptane-2-carboxamide] | 7.5 to 50
CS(=O)(=O)c1ccc(Nc2nc(N3CCC[C@@H](NC(=O)N4CC5(CN(Cc6ccc7c(c6)C(=O)N(C6CCC(=O)NC6=O)C7=O)C5)C4)C3)cnc2C(N)=O)cc1 (stereo partly drawn) [Compound 25, N-[(3R)-1-{5-carbamoyl-6-[(4-methanesulfonylphenyl)amino]pyrazin-2-yl}piperidin-3-yl]-6-{[2-(2,6-dioxopiperidin-3-yl)-1,3-dioxoisoindol-5-yl]methyl}-2,6-diazaspiro[3.3]heptane-2-carboxamide] | 7.5 to 50
CS(=O)(=O)c1ccc(Nc2nc(N3CCC[C@@H](NC(=O)N4CCN(Cc5ccc6c(c5)C(=O)N(C5CCC(=O)NC5=O)C6=O)CC4)C3)cnc2C(N)=O)cc1 (stereo partly drawn) [Compound 26, 5-((3R)-3-(4-((2-(2,6-dioxopiperidin-3-yl)-1,3-dioxoisoindolin-5-yl)methyl)piperazine-1-carboxamido)piperidin-1-yl)-3-((4-(methylsulfonyl)phenyl)amino)pyrazine-2-carboxamide] | 50 to 500
Cc1cc(Nc2nc(N3CCC[C@@H](NC(=O)N4CCN(c5ccc6c(c5)C(=O)N(C5CCC(=O)NC5=O)C6=O)CC4)C3)cnc2C(N)=O)sn1 (stereo partly drawn) [Compound 27, 5-[(3R)-3-{4-[2-(2,6-dioxopiperidin-3-yl)-1,3-dioxoisoindol-5-yl]piperazine-1-carbonylamino}piperidin-1-yl]-3-[(3-methyl-1,2-thiazol-5-yl)amino]pyrazine-2-carboxamide] | 50 to 500
CS(=O)(=O)c1ccc(Nc2nc(N3CCC[C@@H](NC(=O)N4CCC5(CC4)CN(c4ccc6c(c4)C(=O)N(C4CCC(=O)NC4=O)C6=O)C5)C3)cnc2C(N)=O)cc1 (stereo partly drawn) [Compound 28, N—((R)-1-(5-carbamoyl-6-((4-(methylsulfonyl)phenyl)amino)pyrazine-2-yl)piperidin-3-yl)-2-(2-(2,6-dioxopiperidin-3-yl)-1,3-dioxoisoindolin-5-yl)-2,7-diazaspiro[3.5]nonane-7-carboxamide] | 7.5 to 50
CS(=O)(=O)c1ccc(Nc2nc(N3CCC[C@@H](NC(=O)N4CCC5(CC4)CN(Cc4ccc6c(c4)C(=O)N(C4CCC(=O)NC4=O)C6=O)C5)C3)cnc2C(N)=O)cc1 (stereo partly drawn) [Compound 29, N-[(3R)-1-{5-carbamoyl-6-[(4-methanesulfonylphenyl)amino]pyrazin-2-yl}piperidin-3-yl]-2-{[2-(2,6-dioxopiperidin-3-yl)-1,3-dioxoisoindol-5-yl]methyl}-2,7-diazaspiro[3.5]nonane-7-carboxamide] | < 7.5
CS(=O)(=O)c1ccc(Nc2nc(N3CCC[C@@H](NC(=O)C4CN(CC5CCN(c6ccc7c(c6)C(=O)N(C6CCC(=O)NC6=O)C7=O)CC5)C4)C3)cnc2C(N)=O)cc1 (stereo partly drawn) [Compound 30, 5-((3R)-3-(1-((1-(2-(2,6-dioxopiperidin-3-yl)-1,3-dioxoisoindolin-5-yl)piperidin-4-yl)methyl)azetidine-3-carboxamido)piperidin-1-yl)-3-((4-(methylsulfonyl)phenyl)amino)pyrazine-2-carboxamide] | 7.5 to 50
CS(=O)(=O)c1ccc(Nc2nc(N3CCC[C@@H](NC(=O)C4CCC5(CC4)CCN(Cc4ccc6c(c4)C(=O)N(C4CCC(=O)NC4=O)C6=O)CC5)C3)cnc2C(N)=O)cc1 (stereo partly drawn) [Compound 31, N—((R)-1-(5-carbamoyl-6-((4-(methylsulfonyl)phenyl)amino)pyrazin-2-yl)piperidin-3-yl)-3-((2-(2,6-dioxopiperidin-3-yl)-1,3-dioxoisoindolin-5-yl)methyl)-3-azaspiro[5.5]undecane-9-carboxamide] | < 7.5
CS(=O)(=O)c1ccc(Nc2nc(N3CCC[C@@H](NC(=O)C4CC5(C4)CN(Cc4ccc6c(c4)C(=O)N(C4CCC(=O)NC4=O)C6=O)C5)C3)cnc2C(N)=O)cc1 (stereo partly drawn) [Compound 32, N—((R)-1-(5-carbamoyl-6-((4-(methylsulfonyl)phenyl)amino)pyrazin-2-yl)piperidin-3-yl)-2-((2-(2,6-dioxopiperidin-3-yl)-1,3-dioxoisoindolin-5-yl)methyl)-2-azaspiro[3.3]heptane-6-carboxamide] | 7.5 to 50
CS(=O)(=O)c1ccc(Nc2nc(N3CCC[C@@H](NC(=O)[C@H]4[C@@H]5CN(CC6CCN(c7ccc8c(c7)C(=O)N(C7CCC(=O)NC7=O)C8=O)CC6)C[C@@H]54)C3)cnc2C(N)=O)cc1 (stereo partly drawn) [Compound 33, (1R,5S,6r)-N—((R)-1-(5-carbamoyl-6-((4-(methylsulfonyl)phenyl)amino)pyrazin-2-yl)piperidin-3-yl)-3-((1-(2-(2,6-dioxopiperidin-3-yl)-1,3-dioxoisoindolin-5-yl)piperidin-4-yl)methyl)-3-azabicyclo[3.1.0]hexane-6-carboxamide] | < 7.5
